Test results taken from patent publication US9809598B2 (Merck Patent GmbH, priority 2014, dated 2017).
Converted amounts (≈) assume the structure as drawn.

What was measured:
[1] = test system: DLD-1-cancer cells; conditions: Huang et al., 2009; Nature; cited from earlier work
[2] = biological target: T1, PARP-1 (Homo sapiens, UniProt P09874); test: PARP-1 autoparsylation assay (HTRF); type: biochemical; conditions: His-tagged Parp-1, autoparsylation HTRF
T1 construct: purchased Enzo Life Sciences GmbH, Lörrach, Germany
Summary of the method: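 HTRF emission ratio reports biotin-ADP-ribose self-transfer onto His-tagged PARP-1, with biotinylated NAD/NAD as co-substrate, sensed via cryptate anti-His and Xlent-streptavidin.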

[3] = Microsomal stability (intrinsic clearance), human liver microsomes; type: in vitro ADME; conditions: pH 7.4
From the text: (§1) Test Method Microsomal Stability (Intrinsic Clearance)
(§2) A microsomal stability assay is used to measure in vitro clearance (Clint). The assay involves measuring the rate of disappearance of a compound due to its intrinsic attitude to be metabolized (“intrinsic” meaning that the disappearance is not affected by other properties like permeability, binding etc. that play a role when quantifying in vivo clearance). The microsomal stability (intrinsic clearance, Clint) and thus metabolic stability is generally given as μl/min/mg protein. It can be visualized as the volume of solution that 1 mg of microsomes is able to clear of the compound in one minute.
(§3) A Tecan Genesis workstation (RSP 150/8) was used for to perform the microsomal incubations. Analysis was carried out using a Waters ACQUITY UPLC system coupled to an ABSciex API3000 mass spectrometer. Data analysis was performed using Assay Explorer (Symyx).
(§4) Chemicals • Potassium phosphate buffer: 0.05 M potassium phosphate buffer pH 7.4 containing 1 mM MgCl2 • NADPH (nicotinamide adenine dinucleotide phosphate): 22.5 mg NADPH-Na4 in 1.8 ml potassium phosphate buffer • Acetonitrile: 50 Vol % acetonitrile (1 volume acetonitrile, 1 volume water) • DMSO: 20 Vol % DMSO in water • Stock solution of 20 mg/ml human or mouse liver microsomes (protein)/ml in phosphate buffer
(§5) Stock solution of 10 mM compound in 100% DMSO

[4] = Solubility pH 7.4; type: physicochemical; conditions: pH 7.4, aqueous buffer
[5] = test system: Tankyrases; conditions: read-out: EC50 [M] TNKS cellular assay; DLD1 cells, 24 hours, Axin2 increase
[6] = biological target: T2, TNKS1 (Homo sapiens, UniProt O95271); test: TNKS1 activity ELISA (autoparsylation assay); type: biochemical; conditions: GST-tagged Tnks-1 (1023-1327 aa)
T2 construct: GST-tagged Tnks-1 (1023-1327 aa, prepared in-house); made in house
Summary of the method: (§6)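 Autoparsylation ELISA: biotinylated NAD serves as co-substrate for plate-bound GST-TNKS1/TNKS2, incubated with test compounds. Readout is HRP luminescence after streptavidin-HRP binding, referenced to the no-inhibitor reaction, from which IC50 values are derived.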

[7] = Microsomal stability (intrinsic clearance), mouse liver microsomes; type: in vitro ADME; conditions: pH 7.4
From the text: as §1, §2, §3, §4, §5

[8] = biological target: T3, TNKS2 (Homo sapiens, UniProt Q9H2K2); test: TNKS2 activity ELISA (autoparsylation assay); type: biochemical; conditions: GST-tagged Tnks-2 (873-1166 aa); read-out: IC50 [M] TNKS2 ELISA
T3 construct: GST-tagged Tnks-2 (873-1166 aa, prepared in-house); made in house
Summary of the method: as §6

[9] = biological target: Tankyrase; conditions: as reported in the cited publication / patent application; read-out: cellular assay: EC50; cited from earlier work

T1 sequence (P09874 whole entry): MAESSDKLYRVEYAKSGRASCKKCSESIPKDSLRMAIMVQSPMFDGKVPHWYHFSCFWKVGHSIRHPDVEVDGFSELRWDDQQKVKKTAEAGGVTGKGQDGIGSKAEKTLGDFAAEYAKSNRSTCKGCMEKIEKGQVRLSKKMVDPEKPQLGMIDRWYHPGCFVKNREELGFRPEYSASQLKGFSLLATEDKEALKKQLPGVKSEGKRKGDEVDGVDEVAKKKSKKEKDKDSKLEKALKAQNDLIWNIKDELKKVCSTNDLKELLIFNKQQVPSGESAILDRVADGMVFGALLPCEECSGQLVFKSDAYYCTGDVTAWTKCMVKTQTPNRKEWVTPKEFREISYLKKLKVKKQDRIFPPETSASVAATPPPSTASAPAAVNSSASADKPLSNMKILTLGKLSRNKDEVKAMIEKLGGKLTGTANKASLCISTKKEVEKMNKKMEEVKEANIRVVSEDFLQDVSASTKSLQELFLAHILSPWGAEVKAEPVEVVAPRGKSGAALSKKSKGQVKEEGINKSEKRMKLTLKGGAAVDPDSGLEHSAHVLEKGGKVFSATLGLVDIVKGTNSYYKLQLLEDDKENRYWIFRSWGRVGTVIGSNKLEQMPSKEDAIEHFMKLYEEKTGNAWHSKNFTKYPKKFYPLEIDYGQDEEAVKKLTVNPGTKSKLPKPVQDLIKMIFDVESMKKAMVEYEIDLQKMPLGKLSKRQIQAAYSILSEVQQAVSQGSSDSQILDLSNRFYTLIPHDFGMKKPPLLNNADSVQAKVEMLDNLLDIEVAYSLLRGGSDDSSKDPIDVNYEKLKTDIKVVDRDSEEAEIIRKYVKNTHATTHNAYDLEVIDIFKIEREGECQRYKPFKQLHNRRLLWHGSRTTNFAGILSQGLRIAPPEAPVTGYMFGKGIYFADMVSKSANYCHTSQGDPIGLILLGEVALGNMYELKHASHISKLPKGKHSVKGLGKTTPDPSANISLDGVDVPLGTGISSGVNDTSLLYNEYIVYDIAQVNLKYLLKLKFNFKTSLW
T2 sequence (O95271 1023-1327): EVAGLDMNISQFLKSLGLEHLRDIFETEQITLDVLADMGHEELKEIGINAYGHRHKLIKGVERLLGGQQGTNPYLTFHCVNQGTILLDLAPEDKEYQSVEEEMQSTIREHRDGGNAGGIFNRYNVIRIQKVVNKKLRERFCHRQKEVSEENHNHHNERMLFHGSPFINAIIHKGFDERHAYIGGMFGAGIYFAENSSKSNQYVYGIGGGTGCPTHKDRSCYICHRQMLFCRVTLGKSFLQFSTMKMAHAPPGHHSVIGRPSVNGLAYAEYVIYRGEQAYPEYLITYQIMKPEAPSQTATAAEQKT
T3 sequence (Q9H2K2 873-1166): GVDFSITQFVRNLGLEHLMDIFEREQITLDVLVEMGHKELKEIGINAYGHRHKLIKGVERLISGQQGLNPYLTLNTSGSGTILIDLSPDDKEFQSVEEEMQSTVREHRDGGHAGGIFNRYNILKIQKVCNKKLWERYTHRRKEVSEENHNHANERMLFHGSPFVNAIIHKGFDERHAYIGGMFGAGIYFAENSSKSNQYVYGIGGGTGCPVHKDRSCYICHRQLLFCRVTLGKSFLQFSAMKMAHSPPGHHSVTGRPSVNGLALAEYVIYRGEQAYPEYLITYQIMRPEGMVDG

Compound	growth of DLD-1-cancer cells [1]	IC50 [2]	microsomal CLint [3]	solubility [4]	EC50 [5]	IC50 [6]	microsomal CLint [7]	IC50 [8]	EC50 [9]
Oc1nc(-c2ccc(C(F)(F)F)cc2)nc2c1CSCC2 [XAV939]	inhibits growth								
Cn1cc(C(=O)C2CCN(C(=O)CCCc3nn4cc(F)cc4c(=O)[nH]3)CC2)cn1 [Compound C179, 6-Fluoro-2-{4-[4-(1-methyl-1H-pyrazole-4-carbonyl)-piperidin-1-yl]-4-oxo-butyl}-3H-pyrrolo[2,1-f][1,2,4]triazin-4-one]		11000 nM	11 µL/min/mg	58 µg/mL (≈ 140 µM)	1.7e-08 M	0.52 nM	29 µL/min/mg	1.1e-09 M	
COc1ccc(C(=O)C2CCN(C(=O)CCCc3nc4c(cnn4C)c(=O)[nH]3)CC2)cc1 [Compound C41, 6-{4-[4-(4-Methoxy-benzoyl)-piperidin-1-yl]-4-oxo-butyl}-1-methyl-1,5-dihydro-pyrazolo[3,4-d]pyrimidin-4-one]		6300 nM	25 µL/min/mg	55 µg/mL (≈ 126 µM)	1.8e-09 M	0.18 nM	36 µL/min/mg	1.3e-10 M	
COc1ccc(C(=O)C2CCN(CC(=O)N(Cc3nc4c(c(=O)[nH]3)COCC4)CC3CC3)CC2)cc1									35 nM
Cn1ncc2c(=O)[nH]c(CCCC(=O)N3CCC(c4cnc(N)c(-c5ncccn5)c4)CC3)nc21 [Compound C45, 6-[4-(6-Amino-5-pyrimidin-2-yl-3′,4′,5′,6′-tetrahydro-2′H-[3,4′]bipyridinyl-1′-yl)-4-oxo-butyl]-1-methyl-1,5-dihydro-pyrazolo[3,4-d]pyrimidin-4-one]		3800 nM	25 µL/min/mg	42 µg/mL (≈ 88.7 µM)	4.9e-10 M	0.26 nM	62 µL/min/mg	1.9e-10 M	
COc1ccc(C(=O)C2CCN(C(=O)CCCc3nc4c(cnn4C)c(=O)[nH]3)CC2)cn1 [Compound C43, 6-{4-[4-(6-Methoxy-pyridine-3-carbonyl)-piperidin-1-yl]-4-oxo-butyl}-1-methyl-1,5-dihydro-pyrazolo[3,4-d]pyrimidin-4-one]		18000 nM	15 µL/min/mg	207 µg/mL (≈ 472 µM)	4.3e-09 M	0.52 nM	36 µL/min/mg	3.5e-10 M	
Cc1ccc2c(=O)[nH]c(CCCC(=O)N3CCC(C(=O)c4cnn(C)c4)CC3)nn12 [Compound C157, 7-Methyl-2-{4-[4-(1-methyl-1H-pyrazole-4-carbonyl)-piperidin-1-yl]-4-oxo-butyl}-3H-pyrrolo[2,1-f][1,2,4]triazin-4-one]		860 nM	22 µL/min/mg	272 µg/mL (≈ 663 µM)	2.7e-09 M	0.31 nM	46 µL/min/mg	2.6e-10 M	
COc1ccc(C(=O)C2CCN(C(=O)CCCc3nc4c(c(=O)[nH]3)COCC4)CC2)cc1 [Compound C52, 2-{4-[4-(4-Methoxy-benzoyl)-piperidin-1-yl]-4-oxo-butyl}-3,5,7,8-tetrahydro-pyrano[4,3-d]pyrimidin-4-one]		1900 nM	< 10 µL/min/mg	868 µg/mL (≈ 1970 µM)	4.6e-09 M	1.4 nM	< 10 µL/min/mg	4.8e-10 M	
CCn1cc(C(=O)C2CCN(C(=O)CCCc3nn4cccc4c(=O)[nH]3)CC2)cn1 [Compound C214, 2-{4-[4-(1-Ethyl-1H-pyrazole-4-carbonyl)-piperidin-1-yl]-4-oxo-butyl}-3H-pyrrolo[2,1-f][1,2,4]triazin-4-one]		8500 nM	21 µL/min/mg	394 µg/mL (≈ 960 µM)	1.5e-08 M	2.2 nM	41 µL/min/mg	1.3e-09 M	
COc1ccc(C(=O)C2CCN(C(=O)CCCc3nn4cccc4c(=O)[nH]3)CC2)cn1 [Compound C137, 2-{4-[4-(6-Methoxy-pyridine-3-carbonyl)-piperidin-1-yl]-4-oxo-butyl}-3H-pyrrolo[2,1-f][1,2,4]triazin-4-one]		21000 nM	10 µL/min/mg	70 µg/mL (≈ 165 µM)	1.9e-08 M	1.5 nM	78 µL/min/mg	1e-09 M	
COc1ccccc1NC(=O)c1ccc(NC(=O)CCc2nc3ccccc3c(=O)[nH]2)cc1									320 nM
